Results published in patent publication US20080214671A1, “Dicarbonic Acid Derivatives, Metastasis Inhibitors and Agents Increasing Chemotherapeutic Activity of Anti-Tumor Preparations, Method for Enhancing the Cytostatic Efficiency and Metastasis Process Inhibiting Method” (priority 2005, published 2008).

Legend:
Type in all cases: in vivo
B-16 melanoma = B-16 melanoma in BDF1 mice, metastasis inhibition in the lungs
Procedure: Experimental B-16 melanoma was subcutaneously engrafted to hybrid mice BDF1. The inoculum was 5×10^6 tumor cells. The combined effect of FB-13 and cisplatin was investigated. The index of metastasis inhibition (IMI in %) in the lungs served as the assessment criterion. When cisplatin was administered alone, IMI was 52%, in combined administration with FB-13, it was 100%. Similar studies were carried out with hydroxamic acids based on oxalic acid (the compound L215) and based on tartaric acid (the compound L221). Tests for acute toxicity were carried out in the group of experimental oncology of the IPKhF of the RAS by intraperitoneal administration of the preparations in water to BDF1 mice. […] The use of these compounds at the minimum doses in combination with the minimum doses of cytostatics (when neither of the preparations taken alone provides a therapeutic effect) makes complete inhibition of the metastasis process in experimental B-16 melanoma or Lewis lung carcinoma possible. Furthermore, the use of dicarbonic acid oxyamides as agents for enhancing the anti-tumor effect makes it possible in a combination with the minimum amounts of oxyamide and a cytostatic (a unit dose of cytostatics being 4 times lower than a therapeutic dose) to enhance the efficacy in the treatment of P-388 leukemia (survival rate of the animals is 100%).

Leukemia P388 = test: P388 leukemia in BDF1 mice, combined therapy with cytostatic
Procedure: (§1) An experimental study of the anti-tumor activity of the FB-13 preparation as a chemosensitizer was carried out on tumor models of P388 leukemia and Lewis metastatic lung carcinoma, which can be seen in Examples 5 and 6.
Leukemia P388 was intraperitoneally inoculated to hybrid mice BDF1. The inoculum was 10^6 leukemic cells in 0.2 ml normal saline. The preparation was administered at a dose 10 mg/kg, cisplatin—at a dose 2 mg/kg on days 1, 3, 5 and 7 post transplantation. The number of cured (surviving for 60 days) animals served as an assessment criterion.
Similar studies were carried out with the preparation FB-14 (50 mg/kg) and cyclophosphane (60 mg/kg).
Furthermore, a significant increase in the average life span (ILS) of the animals as compared to the control group is shown in FIG. 4b.

Lewis lung carcinoma = Lewis lung carcinoma in BDF1 mice, metastasis inhibition in the lungs
Procedure: as §1
Lewis lung carcinoma was subcutaneously inoculated to hybrid mice BDF1. The inoculum was 5×10^6 tumor cells. The combined effect of FB-13 and cisplatin was investigated. The index of metastasis inhibition (IMI in %) in the lungs served as the assessment criterion. When cisplatin was administered alone, IMI was 50%, in combined administration with FB-13, it was 100% (FIG. 2).

[1] = combined administration of FB-13 with cisplatin
[2] = cisplatin administered alone, s.c. inoculum 5x10^6 cells

Row | SMILES | index of metastasis inhibition (IMI) in the lungs (B-16 melanoma; [1]) [%] | number of cured (surviving for 60 days) animals (Leukemia P388; combined administration: FB-13 10 mg/kg and cisplatin 2 mg/kg on days 1, 3, 5 and 7) [%] | index of metastasis inhibition (IMI) in the lungs (Lewis lung carcinoma; [1]) [%] | index of metastasis inhibition (IMI) in the lungs (B-16 melanoma; [2]) [%] | number of cured (surviving for 60 days) animals (Leukemia P388; only cisplatin, 2 mg/kg on days 1, 3, 5 and 7 post transplantation, i.p. inoculum 10^6 cells) [%] | index of metastasis inhibition (IMI) in the lungs (Lewis lung carcinoma; [2]) [%]
1 | NC(=O)C(N)=O.O=C(O)/C=C\C(=O)O [FB-13, Maleic acid monooxamide] | 100 | 100 | 100 | – | – | –
2 | N.N.[Cl][Pt][Cl] [cisplatin] | – | – | – | 52 | 66.7 | 50
